Values joined by “and” are separate entries in the source; they are usually repeats but may differ in a detail not shown here. Equal values may be shown once.
Experiments:
[1] = test system: ALK-positive advanced NSCLC who had failed a second-generation ALK inhibitor; assay: Phase II single-arm trial, 60 mg QD: whole-body tumor efficacy (IRC assessment); format: in vivo, human
Source text: Variable of the research: whether the subjects achieved objective response (CR/PR) during the treatment, as assessed by the independent review committee (IRC).

[2] = Phase I clinical trial: safety and tolerability (TRAE, CNS-related AE, DLT, MTD, RP2D); format: in vivo; conditions: for Any TRAE / TRAE Anemia / TRAE Diarrhea / TRAE Edema / TRAE Elevated alanine aminotransferase / TRAE Elevated creatinine / TRAE Hypercholesterolemia / TRAE Hypertriglyceridemia / TRAE Hyperuricemia / TRAE Hypoproteinemia / TRAE Increased AST / TRAE Increased LDL cholesterol / TRAE Increased creatine phosphokinase / TRAE Increased glutamine transferase / TRAE Increased lipase / TRAE Peripheral neuropathy / TRAE Positive for occult blood in urine / TRAE Proteinuria / TRAE Weight gain: 60mg dose group n=168
Source text: An adverse event will be described using MedDRA (Medical Dictionary for Regulatory Activities). Analysis of an adverse event will be based on a treatment emergent adverse event (TEAE). TEAE is defined as an adverse event that occur or worsen after a treatment/medication.
Subjects in all the dose groups received a single dose on day 1 (D1), and the blood samples were collected for pharmacokinetic (PK) assay and tolerability observation. […] The administration frequency for the subjects in the subsequent dose groups after entering the multiple-dose period was determined based on the obtained PK and tolerability data. In this trial, the administration frequency for all the subjects could be adjusted throughout the trial based on the continuously acquired safety and PK data. The four lower dose groups (5 mg, 10 mg, 20 mg and 40 mg) used an accelerated titration design, with one subject enrolled in each dose group. […] The 60 mg dose group and the subsequent dose groups followed a "3+3" dose escalation method, and the MTD was determined. […] During the dose escalation, if a dose group was confirmed to have a preliminary antitumor effect and manageable safety (e.g., no DLT occurred in 3 subjects or only 1 out of 6 subjects experienced DLT), the dose level could be expanded after a discussion and confirmation by the researcher and the sponsor.

[3] = 158 subjects, cutoff May 20, 2024
[4] = whole-body, full analysis set (N=158)

Compound: [2H]C([2H])([2H])n1nc2c(c1C#N)-c1cnc(N)c(c1)O[C@H](C)c1cc(F)ccc1C(=O)N(C)C2 [compound A, (10R)-7-amino-12-fluoro-2-(methyl-d3)-10,16-dimethyl-15-oxo-10,15,16,17-tetrahydro-2H-8,4-(metheno)pyrazolo[4,3-h][2,5,11]benzoxadiazacyclotetradecine-3-carbonitrile]
- median DOR [1, 3]: not yet reached
- median PFS [1, 3]: 11.14 months
- median TTR [1, 3]: 1.38 months
- ORR ([1]; subgroup ECOG PS score of 0 at baseline, FAS): 50.0%
- ORR ([1]; subgroup ECOG PS score of 1 to 2 at baseline, FAS): 40.8%
- ORR ([1]; subgroup age < 65 years old, FAS): 43.0%
- ORR ([1]; subgroup age ≥ 65 years old, FAS): 40.0%
- ORR ([1]; subgroup female, FAS): 42.9%
- ORR ([1]; subgroup male, FAS): 41.9%
- ORR ([1]; subgroup never received chemotherapy, FAS): 45.4%
- ORR ([1]; subgroup previously received chemotherapy, FAS): 37.7%
- ORR ([1]; subgroup with a smoking history, FAS): 38.6%
- ORR ([1]; subgroup with brain metastases at baseline, FAS): 45.3%
- ORR ([1]; subgroup without a smoking history, FAS): 39.4%
- ORR ([1]; subgroup without brain metastases at baseline, FAS): 38.9%
- BOR CR [1, 4]: 0 n (%)
- BOR NE [1, 4]: 2 (1.3) n (%)
- BOR PD [1, 4]: 25 (15.8) n (%)
- BOR PR [1, 4]: 67 n (%) and 67 (42.4) n (%)
- BOR SD [1, 4]: 64 (40.5) n (%)
- DCR [1, 4]: 131 (82.9) n (%)
- ORR [1, 4]: 67 n (%) and 67 (42.4) n (%)
- Any TRAE ([2]; any level): 159 (94.6) number of cases (%)
- TRAE Anemia ([2]; any level): 26 (15.5) number of cases (%)
- TRAE Diarrhea ([2]; any level): 8 (8.2) number of cases (%)
- TRAE Edema ([2]; any level): 45(22.7) number of cases (%)
- TRAE Elevated alanine aminotransferase ([2]; any level): 14 (8.3) number of cases (%)
- TRAE Elevated creatinine ([2]; any level): 11 (6.5) number of cases (%)
- TRAE Hypercholesterolemia ([2]; any level): 131 (78.0) number of cases (%)
- TRAE Hypertriglyceridemia ([2]; any level): 124 (73.8) number of cases (%)
- TRAE Hyperuricemia ([2]; any level): 26 (15.5) number of cases (%)
- TRAE Hypoproteinemia ([2]; any level): 10 (6.0) number of cases (%)
- TRAE Increased AST ([2]; any level): 18 (10.7) number of cases (%)
- TRAE Increased LDL cholesterol ([2]; any level): 45 (26.8) number of cases (%)
- TRAE Increased creatine phosphokinase ([2]; any level): 9 (5.4) number of cases (%)
- TRAE Increased glutamine transferase ([2]; any level): 9 (5.4) number of cases (%)
- TRAE Increased lipase ([2]; any level): 12 (7.1) number of cases (%)
- TRAE Peripheral neuropathy ([2]; any level): 34(20.2) number of cases (%)
- TRAE Positive for occult blood in urine ([2]; any level): 13 (7.7) number of cases (%)
- TRAE Proteinuria ([2]; any level): 7 (7.2) number of cases (%)
- TRAE Weight gain ([2]; any level): 77 (45.8) number of cases (%)
- Any TRAE ([2]; ≥3): 61 (36.3%) number of cases (%)
- TRAE Anemia ([2]; ≥3): 4 (2.4) number of cases (%)
- TRAE Diarrhea ([2]; ≥3): 0 number of cases (%)
- TRAE Edema ([2]; ≥3): 2 (1.2) number of cases (%)
- TRAE Elevated alanine aminotransferase ([2]; ≥3): 0 number of cases (%)
- TRAE Elevated creatinine ([2]; ≥3): 0 number of cases (%)
- TRAE Hypercholesterolemia ([2]; ≥3): 17 (10.1) number of cases (%)
- TRAE Hypertriglyceridemia ([2]; ≥3): 31 (18.5) number of cases (%)
- TRAE Hyperuricemia ([2]; ≥3): 4 (2.4) number of cases (%)
- TRAE Hypoproteinemia ([2]; ≥3): 0 number of cases (%)
- TRAE Increased AST ([2]; ≥3): 0 number of cases (%)
- TRAE Increased LDL cholesterol ([2]; ≥3): 0 number of cases (%)
- TRAE Increased creatine phosphokinase ([2]; ≥3): 0 number of cases (%)
- TRAE Increased glutamine transferase ([2]; ≥3): 2 (1.2) number of cases (%)
- TRAE Increased lipase ([2]; ≥3): 1 (0.6) number of cases (%)
- TRAE Peripheral neuropathy ([2]; ≥3): 1 (0.6) number of cases (%)
- TRAE Positive for occult blood in urine ([2]; ≥3): 0 number of cases (%)
- TRAE Proteinuria ([2]; ≥3): 0 number of cases (%)
- TRAE Weight gain ([2]; ≥3): 11 (6.5) number of cases (%)
- dose interruption or dose reduction due to treatment-related CNS AEs ([2]; 198 patients): no dose interruption or dose reduction was observed
- most common TRAEs ([2]; 198 patients): hypercholesterolemia, hypertriglyceridemia, or weight gain
- patients with grade ≥ 3 treatment-related CNS AEs ([2]; 198 patients): 1.0%
- Any CNS-related AE ([2]; Any level): 18 (9.1) number of cases (%)
- CNS-related AE: Anger ([2]; Any level): 1 (0.5) number of cases (%)
